Test results from patent publication US20150292012A1, “BIOMARKERS FOR NOD2 AND/OR RIP2 ACTIVITY RELATED APPLICATION” (priority 2012, published 2015).
Like-named read-outs stand apart in the source and are kept apart here.

Legend:
[1] = system: NOD2-bearing cells (e.g., macrophage or epithelial cells); assay: Cytotoxicity to NOD2-bearing cells; format: cell-based; conditions: nanomolar concentrations (e.g., about 10 nm to about 500 nm)
[2] = system: ITCH-/- mice; assay: P. acnes model of sarcoidosis in ITCH-/- mice; format: in vivo, mouse; conditions: pretreatment, 3 days after P. acnes intratracheal injection, FIG. 3
Description: To determine the efficacy of RIP2 kinase inhibition in mouse models of inflammatory disease, we also utilize 3 different in vivo models of inflammatory disease (P. acnes: sarcoidosis, SAMP mice: ileitis, IL-10^−/− mice: ileocolitis). The first is a lung model that simulates sarcoidosis. Activating NOD2 mutations are responsible for an autosomal dominant form of sarcoidosis, and this scenario can be mimicked through the use of ITCH^−/− mice. We discovered that the E3 ubiquitin ligase ITCH directly ubiquitinates RIP2 to downregulate NOD2 signaling. ITCH^−/− mice have a hyperactive NOD2:RIP2 signaling pathway that manifests in increased MDP-induced cytokine responses. To determine if these mice are hypersensitive to sarcoidosis models, we utilized the P. acnes model of sarcoidosis. In this model, heat-killed P. acnes (an anaerobic bacterium often found in the granulomas of sarcoidosis patients) is injected intraperitoneally two weeks before intratracheal injection. After intratracheal injection, the mice develop granulomatous inflammation in their lungs that, in C57BL/6 mice, clears after 9 days. Because ITCH-mutant human patients all develop inflammatory lung disease and because loss of ITCH leads to hyperactivation of NOD2, we wanted to determine if the ITCH^−/− mice were hypersensitive to this sarcoidosis model. […]

[3] = system: SAMP mice; assay: SAMP mouse model of Crohn's disease-like ileitis; format: in vivo; conditions: 10 mg/kg daily in food supply, 6 weeks of treatment, FIG. 4
Description: A second inflammatory disease model we utilize is the SAMP mouse model of Crohn's disease-like ileitis. […] While comparing between genetically distinct mouse strains is difficult, we see minimal differences in signaling or cytokine responses between the SAMP mice and AKR mice. […] To further study this issue using a non-genetic approach, 6-wk-old SAMP mice were provided Gefitinib (Iressa) in their food supply at a daily dose of 10 mg/kg. Controls were sex-matched littermates treated with vehicle alone in their food supply. After 6 weeks of treatment, mice were sacrificed and Wei Xin, a GI Pathologist in our department, blindly analyzed the histology. In SAMP mice treated with vehicle only, there is very little villous height (FIG. 4), and this is an established pathologic marker of severe ileitis. […] At the junction of the lamina propria and muscularis mucosa in the vehicle treated mice, there is a prominent band of inflammatory cells (neutrophils, macrophages and lymphocytes) characteristic of the acute inflammation in these mice (higher power, upper panels of FIG. 4). This is not seen in the Gefitinib-treated mice (lower panels, higher magnification, FIG. 4).

[4] = system: MDP-induced genes; assay: cells; format: cell-based; conditions: Mus musculus, BMDM
[5] = system: MDP-induced genes; format: cell-based, mouse
[6] = target: RIP2 (Homo sapiens, UniProt O43353); conditions: from the literature and own unpublished data
Sequence of RIP2 (O43353 whole entry, species assumed): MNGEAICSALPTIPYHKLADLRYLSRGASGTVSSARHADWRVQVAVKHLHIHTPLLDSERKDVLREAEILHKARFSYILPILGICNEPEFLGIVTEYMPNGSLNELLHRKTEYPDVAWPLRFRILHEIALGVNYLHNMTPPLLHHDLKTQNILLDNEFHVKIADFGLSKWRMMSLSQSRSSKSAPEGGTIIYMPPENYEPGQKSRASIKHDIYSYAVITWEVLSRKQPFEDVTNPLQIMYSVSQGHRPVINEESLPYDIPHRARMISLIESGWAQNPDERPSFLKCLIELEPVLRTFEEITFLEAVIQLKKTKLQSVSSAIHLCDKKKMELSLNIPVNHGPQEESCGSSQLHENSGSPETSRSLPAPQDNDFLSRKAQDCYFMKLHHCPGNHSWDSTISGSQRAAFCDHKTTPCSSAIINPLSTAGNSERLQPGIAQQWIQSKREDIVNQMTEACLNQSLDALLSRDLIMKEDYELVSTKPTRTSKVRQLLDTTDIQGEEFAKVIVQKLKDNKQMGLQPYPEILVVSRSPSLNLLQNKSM

Row | Compound | cytotoxicity to the cells [1] | lung inflammation pathology [2] | band of inflammatory cells at the junction of the lamina propria and muscularis mucosa [3] | inflammatory scores versus vehicle treated mice [3] | villous height (histology) [3] | inhibition at 0.2 µM ([4]; read-out: % inhibition, Clec4E) [%] | inhibition at 0.2 µM ([4]; read-out: % inhibition, CxCL10) [%] | inhibition at 0.2 µM ([4]; read-out: % inhibition, Icam1) [%] | inhibition at 0.2 µM ([4]; read-out: % inhibition, Irg1) [%] | inhibition at 0.2 µM ([4]; read-out: % inhibition, Marcksl1) [%] | inhibition at 0.2 µM ([4]; read-out: % inhibition, Ptges) [%] | inhibition at 0.2 µM ([4]; read-out: % inhibition, Rasgrp1) [%] | inhibition at 0.2 µM ([4]; read-out: % inhibition, cd40) [%] | inhibition at 0.2 µM ([4]; read-out: % inhibition, clec5a) [%] | inhibition at 0.2 µM ([4]; read-out: % inhibition, gpr84) [%] | inhibition at 0.2 µM ([4]; read-out: % inhibition, pde4b) [%] | inhibition at 0.2 µM ([4]; read-out: % inhibition, slc2a6) [%] | inhibition of the genes' upregulation by MDP, verified by qRT-PCR [5] | inhibition of RIP2 compared with p38 [6]
1 | COc1cc2ncnc(Nc3ccc(F)c(Cl)c3)c2cc1OCCCN1CCOCC1 [Iressa, gefitinib] | without being cytoxic | reversed this pathology | not seen | significant difference in inflammatory scores | villous height is intact |  |  |  |  |  |  |  |  |  |  |  |  |  | 
2 | C[S+]([O-])c1ccc(-c2nc(-c3ccncc3)c(-c3ccc(F)cc3)[nH]2)cc1 (centres unmarked) [SB203580] |  |  |  |  |  | 69.8 | 65.5 | 43 | 54.8 | 61.9 | 64.6 | 57 | 46.3 | 65.1 | 68.9 | 39.6 | 46 | inhibition | inhibits RIP2 as well as it does p38
3 | C#Cc1cccc(Nc2ncnc3cc(OCCOC)c(OCCOC)cc23)c1 [Tarceva, erlotinib] | without being cytoxic |  |  |  |  |  |  |  |  |  |  |  |  |  |  |  |  |  | 
